Experimental data from patent US20060193777A1, “Method of screening compounds for potential efficacy for the treatment of signs of aging” (priority 2005, published 2006).

Experiments:
[1] = system: Human keratinocytes; assay: Visual contraction of human keratinocytes by real time visual microscopy (cell area); assay type: cell-based
Description: Human keratinocytes and Epilife culture media (Cascade Biologics, Portland, Oreg.) were cultured at 37° C. in a humidified atmospheres of 5% CO2/95% air. Glass Cover Slides (Applied Biophysics, Troy, N.Y.) were coated with 0.01 mg/ml Laminin V (Sigma Aldirch, St Louis, Mo.) in sterile Phosphate Buffered Saline (Gibco Life Sciences, San Diego, Calif.). Human keratinocytes were prepared at a density of 0.125×10^6 cells/mL in Epilife culture media. Human keratinocytes were plated at 3.75×10^4 cells/well on a 6 well plate containing Laminin coated coverslips and cultured at 37° C. in a humidified atmospheres of 5% CO2/95% O2 for 48 hrs. Individual coverslips were transferred to a open bath imaging chamber (Warner Instruments, Hamden, Conn.) mounted on a Leica inverted microscope (Leitz DM1L) with an attached CCD camera. Cells were perfused with Hank's Buffered Salt Solution (HBSS; Gibco Life Sciences, San Diego, Calif.) at flow rate of 1 ml/min using a peristaltic pump (Cole Parmer, Vernon Hills, Ill.). […] The pH of the HBSS without DMAE or THPED. (“Media Alone”) was also adjusted to pH 7.2-7.3. […] Cell area was determined using Scion Image software (Version 4.0.2), and reductions in cell area were reported as the ratio of cell area after treatment to cell area prior to treatment

[2] = system: Human keratinocytes; assay: Reversal of visual contraction of human keratinocytes after removal of DMAE; assay type: cell-based; details: for Reversal of Visual Contraction of Human Keratinocytes (Mean ± Std Dev): 0.1% DMAE
Description: Human keratinocytes and Epilife culture media (Cascade Biologics, Portland, Oreg.) were cultured at 37° C. in a humidified atmospheres of 5% CO2/95% air. Glass Cover Slides (Applied Biophysics, Troy, N.Y.) were coated with 0.01 mg/ml Laminin V (Sigma Aldirch, St Louis, Mo.) in sterile Phosphate Buffered Saline (Gibco Life Sciences, San Diego, Calif.). Human keratinocytes were prepared at a density of 0.125×10^6 cells/mL in Epilife culture media. Human keratinocytes were plated at 3.75×10^4 cells/well on a 6 well plate containing Laminin coated coverslips and cultured at 37° C. in a humidified atmospheres of 5% CO2/95% O2 for 48 hrs. Individual coverslips were transferred to a open bath imaging chamber (Warner Instruments, Hamden, Conn.) mounted on a Leica inverted microscope (Leitz DM1L) with an attached CCD camera. Cells were perfused with Hank's Buffered Salt Solution (HBSS; Gibco Life Sciences, San Diego, Calif.) at flow rate of 1 ml/min using a peristaltic pump (Cole Parmer, Vernon Hills, Ill.). […] The pH of the HBSS without DMAE or THPED. (“Media Alone”) was also adjusted to pH 7.2-7.3. […] Images were collected of a field of keratinocytes containing 10-20 cells at 0, 10 and 20 minutes of treatment using ImagePro software. Cell area was determined using Scion Image software (Version 4.0.2), and reductions in cell area were reported as the ratio of cell area after treatment to cell area prior to treatment
In the following example, keratinocytes were prepared and plated on coverslips as described above.

[3] = system: granular cells in the viable epidermis; assay: Confocal reflectance microscopy of upper inner arm skin, cell size decrease after product application; assay type: in vivo, human; details: two microliters/cm^2, imaged over 20 minutes, eight volunteers, gel with 3% DMAE
Description: A study was conducted using a VivaScope 1000 Confocal Reflectance Microscope from Lucid (Rochester, N.Y.) and a water immersion objective of NA 1.2-0.7 (60×). Sites on the upper inner arm were imaged immediately after product application (two microliters/cm^2 was applied) and every 2 minutes for an interval of 20 minutes. […] The confocal microscope was set up to acquire 16 frames from the top of the stratum corneum in steps of 3 micrometers, allowing observation of changes in cell size/morphology within a 48 micrometer depth region. As described by Rajadhyaksha et al., J. Invest. Dermatol. 113(3):293-303 (1999), the size of the cells varies (in diameter) with skin depth from 25-30 micromerters in the granular cells to 15-25 micrometers in spinous cells layers. In this study, cells were observed approximately 21 micrometers from the top of the stratum corneum, primarily granular cells, or at the top of the spinous cells. The exact same cells were compared in the initial maps and in the final maps in order to avoid any interference of cell size differences with the depth as described by Rajadhyaksha et al. After image acquisition, we used an enhancement routine developed in IDL® Software (Research System Inc., Boulder, Colo.) and the cells size area were measured using Image Pro Plus® (Media Cybernetics Inc., Silver Springs, Md.). […]

[4] = system: Human keratinocytes; assay: Electric Cell-Substrate Impedance Sensing (ECIS) capacitance contraction of human keratinocytes; assay type: cell-based; details: for Electrical Capacitance Contraction of Human Keratinocytes (AUC of capacitance, Mean ± Std Dev): integrated over 5 hrs, 40,000 Hz, pH 7.2-7.3; for contraction or shrinkage of keratinocyte cell area as measured by keratinocyte capacitance (in words): compared to media treatment alone
Source text: Electrical changes due to the presence of a cell layer can be used to calculate cell morphological parameters including the barrier function of the cell layer (the spacing between the ventral side of the cell and the substratum) and the cell membrane capacitance (Giaever and Keese, Proceedings of National Academy of Sciences 88, 7896, 1991).
Current flowing between a reference electrode, onto which cells or cell cultures may be attached, and a larger counter electrode using normal culture medium as the electrolyte can be used to detect changes in cell morphological parameters. In the absence of cells on the electrode, the current flows unrestrained from the surface of the electrodes. In the presence of cells attached and spread upon the electrode, the current must now flow in the spaces under and between the cells, as the cell membrane act as insulators.
The electrical changes of living, viable cells can be sampled rapidly, in real time, over an extended period of time, and the measurements are the measurement is non-invasive. An example of this technology is the Electric Cell-substrate Impedance Sensing System (ECIS) available from Applied Biophysics (Troy, N.Y.). Electrical changes in keratinocyte morphological parameters can be used to identify novel compounds for anti-aging benefits.
Human keratinocytes and Epilife culture media (Cascade Biologics, Portland, Oreg.) were cultured at 37° C. in a humidified atmospheres of 5% CO2/95% air. Electric Cell-substrate Impedance Sensing System (ECIS) electrode arrays (Applied Biophysics , Troy, N.Y.) were coated with 0.01 mg/ml Laminin V (Sigma Aldirch, St Louis, Mo.) in sterile Phosphate Buffered Saline (Gibco Life Sciences, San Diego, Calif.). Human keratinocytes were prepared at a density of 0.125×10^6 cells/mL in Epilife culture media. Human keratinocytes were plated at 5.0×10^4 cells/electrode well and cultured at 37° C. in a humidified atmospheres of 5% CO2/95% O2 for 24-48 hrs. Capacitance changes (in nanofarads, nF) of keratinocytes were measured using a Electric Cell-substrate Impedance Sensing System (ECIS) Model 1600R (Applied Biophysics, Troy, N.Y.) using the method of Wegener and co-workers (Wegener J, Keese C R, Giaever I, Exp Cell Res. 259:158-166, 2000) at a frequency of 40,000 Hz. Capacitance readings are inversely related to the contact area of a cell onto the ECIS electrode array, the greater the cell area contacting the electrode the smaller the capacitance readings (Wegener J, Keese C R, Giaever I, Exp Cell Res. 259:158-166, 2000). Conversely as a cell contracts or shrinks, the contact area of the cell onto the ECIS electrode array decreases, resulting in an increase in the capacitance readings. […] These calculations are based on the trapezoid theorem. The AUC of the media curve was subtracted from the compound treated group. A positive AUC difference indicates keratinocyte contraction, the greater the AUC difference the greater the amount of keratinocyte contraction. […] DMAE is a known skin-firming agent. The compounds were diluted into Hank's Buffered Salt Solution (HBSS; Gibco Life Sciences, San Diego, Calif.) and the pH of the solution adjusted to between pH 7.2-7.3. The pH of the HBSS without compounds (“Media Alone”) was also adjusted to pH 7.2-7.3.

Row | SMILES | contraction or shrinkage of keratinocyte cell area as determined by keratinocyte surface area (in words) [1] | Visual Contraction of Human Keratinocytes (reduction in cell area, Mean ± Std Dev) ([1]; 0.01%, 10 Min) | Visual Contraction of Human Keratinocytes (reduction in cell area, Mean ± Std Dev) ([1]; 0.01%, 20 Min) | Visual Contraction of Human Keratinocytes (reduction in cell area, Mean ± Std Dev) ([1]; 0.05%, 10 Min) | Visual Contraction of Human Keratinocytes (reduction in cell area, Mean ± Std Dev) ([1]; 0.05%, 20 Min) | Visual Contraction of Human Keratinocytes (reduction in cell area, Mean ± Std Dev) ([1]; 0.1%, 10 Min) | Visual Contraction of Human Keratinocytes (reduction in cell area, Mean ± Std Dev) ([1]; 0.1%, 20 Min) | Reversal of Visual Contraction of Human Keratinocytes (Mean ± Std Dev) ([2]; 20 Min Treatment with DMAE) | Reversal of Visual Contraction of Human Keratinocytes (Mean ± Std Dev) ([2]; 30 Min After Removal of DMAE) | Reversal of Visual Contraction of Human Keratinocytes (Mean ± Std Dev) ([2]; 60 Min After Removal of DMAE) | reversibility of keratinocyte contraction (in words) ([2]; after removal of DMAE) | Percentage of Decreases in Cell Size [3] [%] | Electrical Capacitance Contraction of Human Keratinocytes (AUC of capacitance, Mean ± Std Dev) ([4]; 0.01% V/V) | Electrical Capacitance Contraction of Human Keratinocytes (AUC of capacitance, Mean ± Std Dev) ([4]; 0.05% V/V) | Electrical Capacitance Contraction of Human Keratinocytes (AUC of capacitance, Mean ± Std Dev) ([4]; 0.1% V/V) | contraction or shrinkage of keratinocyte cell area as measured by keratinocyte capacitance (in words) [4] | Visual Contraction of Human Keratinocytes (reduction in cell area, Mean ± Std Dev) ([1]; 0.1%, 2 Min)
1 | CN(C)CCO [DMAE, 2-(dimethylamino)ethanol] | dose-dependent contraction or shrinkage | 4.82% ± 0.68% | 6.22% ± 0.95% | 16.40% ± 2.58% | 18.04% ± 3.09% | 23.61% ± 3.03% | 33.83% ± 2.96% | 32.17% ± 2.65% | 24.25% ± 3.23% | 16.546% ± 3.89% | reversal of the DMAE-induced keratinocyte contraction | 15 | 22.82 ± 4.1 | 28.8 ± 5.6 | 36.1 ± 5.9 | dose-dependent contraction or shrinkage | –
2 | CC(O)CN(CCN(CC(C)O)CC(C)O)CC(C)O (stereo not drawn) [THPED, N,N,N′,N′-Tetrakis(2-hydroxypropyl)ethylenediamine] | dose-dependent contraction or shrinkage | – | – | – | – | 37.9% ± 10.7% | 47.3% ± 12.7% | – | – | – | – | – | 29.2 ± 3.2 | 35.1 ± 5.3 | 44.5 ± 9.1 | dose-dependent contraction or shrinkage | 32.9% ± 11.3%
